Read-outs that look alike come from different tables or passages of the source.
Key:
KAT-6A = KAT-6A (Homo sapiens (Human), UniProt Q92794); assay: KAT-6A biochemical inhibition assay (SAMDI mass spectrometry)
Experimental: (§1) KAT-6A. Enzyme assay buffer was 50 mM Tris pH 8.0, 0.002% Tween20, 0.005% bovine skin gelatin, and 1 mM dithiothreitol (DTT). For determination of IC50 values, compounds were serially diluted with 2% (v/v) DMSO in the final reaction, pre-incubating each dilution of each compound with 40 μL of assay buffer containing KAT-6A enzyme (12.5 nM final concentration). 10 μL of assay buffer containing 1 μM peptide substrate and 1 μM acetyl coenzyme A (final concentrations) was added. Reactions (50 μL total) were then carried out at 25° C. for 90 minutes. Reactions were terminated by the addition of 0.5% formic acid (final concentration), and a sample of each reaction was analyzed by SAMDI Tech, Inc. (Chicago, Ill.) using self-assembled monolayer desorption/ionization time-of-flight mass spectrometry (Mrksich, M. (2008) Mass spectrometry of self-assembled monolayers: a new tool for molecular surface science. ACS Nano 2, 7-18).

KAT-5 = KAT-5 (Homo sapiens (Human), UniProt Q92993); assay: KAT-5 biochemical inhibition assay (SAMDI mass spectrometry)
Experimental: as §1, with “KAT-5. Enzyme assay” for “KAT-6A. Enzyme assay”, “buffer containing KAT-5 enzyme (9” for “buffer containing KAT-6A enzyme (12.5”, “KAT-5 enzyme (9 nM final” for “KAT-6A enzyme (12.5 nM final”, “substrate and 0.5 μM acetyl” for “substrate and 1 μM acetyl”

KAT-7 = KAT-7 (Homo sapiens (Human), UniProt O95251); assay: KAT-7 biochemical inhibition assay (SAMDI mass spectrometry)
Experimental: as §1, with “KAT-7. Enzyme assay” for “KAT-6A. Enzyme assay”, “buffer containing KAT-7 enzyme (6” for “buffer containing KAT-6A enzyme (12.5”, “KAT-7 enzyme (6 nM final” for “KAT-6A enzyme (12.5 nM final”, “substrate and 2 μM acetyl” for “substrate and 1 μM acetyl”, “C. for 120 minutes. Reactions” for “C. for 90 minutes. Reactions”

KAT-8 = KAT-8 (Homo sapiens (Human), UniProt Q9H7Z6); assay: KAT-8 biochemical inhibition assay (SAMDI mass spectrometry)
Experimental: as §1, with “KAT-8. Enzyme assay” for “KAT-6A. Enzyme assay”, “buffer containing KAT-8 enzyme (12.5” for “buffer containing KAT-6A enzyme (12.5”, “substrate and 5 μM acetyl” for “substrate and 1 μM acetyl”

Sequence of KAT-8 (Q9H7Z6 other isoform, or with tags, fused parts or gaps): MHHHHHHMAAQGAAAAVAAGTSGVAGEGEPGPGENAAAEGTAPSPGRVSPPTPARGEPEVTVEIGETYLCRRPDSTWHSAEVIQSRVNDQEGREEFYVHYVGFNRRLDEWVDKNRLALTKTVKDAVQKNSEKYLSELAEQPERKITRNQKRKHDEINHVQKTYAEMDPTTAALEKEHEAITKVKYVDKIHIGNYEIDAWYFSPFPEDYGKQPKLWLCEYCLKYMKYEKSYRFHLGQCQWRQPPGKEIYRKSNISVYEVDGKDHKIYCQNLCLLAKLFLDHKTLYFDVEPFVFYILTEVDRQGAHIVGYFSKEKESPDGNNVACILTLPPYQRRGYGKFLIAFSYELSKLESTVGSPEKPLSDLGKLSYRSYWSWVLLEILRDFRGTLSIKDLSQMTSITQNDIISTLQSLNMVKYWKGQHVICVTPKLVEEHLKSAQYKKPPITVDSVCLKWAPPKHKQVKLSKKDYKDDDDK
Sequence of KAT-6A (Q92794 other isoform, or with tags, fused parts or gaps): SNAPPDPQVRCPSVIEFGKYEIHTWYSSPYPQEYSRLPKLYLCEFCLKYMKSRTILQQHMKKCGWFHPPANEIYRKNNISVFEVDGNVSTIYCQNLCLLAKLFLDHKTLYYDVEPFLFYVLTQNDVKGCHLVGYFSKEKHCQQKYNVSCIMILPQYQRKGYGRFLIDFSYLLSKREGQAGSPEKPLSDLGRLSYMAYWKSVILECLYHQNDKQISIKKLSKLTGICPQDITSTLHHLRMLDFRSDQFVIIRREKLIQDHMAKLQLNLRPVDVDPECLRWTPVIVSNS
Sequence of KAT-7 (O95251 other isoform, or with tags, fused parts or gaps): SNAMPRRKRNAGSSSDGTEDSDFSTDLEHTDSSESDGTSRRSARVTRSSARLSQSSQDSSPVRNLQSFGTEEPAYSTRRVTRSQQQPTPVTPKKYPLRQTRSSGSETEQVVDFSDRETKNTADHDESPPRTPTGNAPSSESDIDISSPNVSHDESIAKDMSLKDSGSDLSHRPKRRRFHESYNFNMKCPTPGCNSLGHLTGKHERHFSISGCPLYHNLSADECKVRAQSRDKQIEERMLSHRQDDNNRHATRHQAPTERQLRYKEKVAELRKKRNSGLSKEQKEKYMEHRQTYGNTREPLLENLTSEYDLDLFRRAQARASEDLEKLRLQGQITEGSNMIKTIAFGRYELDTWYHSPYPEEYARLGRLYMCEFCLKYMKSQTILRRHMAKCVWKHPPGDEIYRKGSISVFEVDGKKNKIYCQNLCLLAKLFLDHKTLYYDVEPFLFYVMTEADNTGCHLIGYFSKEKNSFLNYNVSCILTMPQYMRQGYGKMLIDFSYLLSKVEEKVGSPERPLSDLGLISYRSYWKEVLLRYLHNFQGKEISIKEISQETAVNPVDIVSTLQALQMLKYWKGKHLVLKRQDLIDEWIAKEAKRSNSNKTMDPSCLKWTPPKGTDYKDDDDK
Sequence of KAT-5 (Q92993 other isoform, or with tags, fused parts or gaps): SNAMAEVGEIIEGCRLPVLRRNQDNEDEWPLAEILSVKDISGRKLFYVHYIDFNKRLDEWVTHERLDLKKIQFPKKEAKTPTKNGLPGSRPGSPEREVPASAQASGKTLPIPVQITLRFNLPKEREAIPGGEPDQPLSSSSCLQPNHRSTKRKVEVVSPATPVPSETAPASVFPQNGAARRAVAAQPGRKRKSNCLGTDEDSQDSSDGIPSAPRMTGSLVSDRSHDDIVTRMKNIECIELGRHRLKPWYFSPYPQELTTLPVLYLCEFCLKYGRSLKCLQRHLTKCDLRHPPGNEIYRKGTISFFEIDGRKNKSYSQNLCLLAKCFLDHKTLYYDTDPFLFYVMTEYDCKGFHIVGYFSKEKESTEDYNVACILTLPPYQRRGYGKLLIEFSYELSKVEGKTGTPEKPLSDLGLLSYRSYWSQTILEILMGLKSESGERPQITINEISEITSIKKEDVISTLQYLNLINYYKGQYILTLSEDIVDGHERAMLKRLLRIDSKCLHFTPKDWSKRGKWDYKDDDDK

Structure (SMILES)	IC50 (KAT-6A) [µM]	IC50 (KAT-5) [µM]	IC50 (KAT-7) [µM]	IC50 (KAT-8) [µM]	IC50 (KAT-6A; Table 5) [µM]	IC50 (KAT-5; Table 5) [µM]	IC50 (KAT-7; Table 5) [µM]
Cc1cccc(-c2cc(Cl)c(F)c(C(=O)NNS(=O)(=O)CC3CN(C)CCN3C)c2)c1 (stereo not drawn) [Compound A-17]	–	–	–	–	10 to 50	> 100	≤ 10
Cc1cccc(-c2cc(Cl)c(F)c(C(=O)NNS(=O)(=O)C(C)C3CCCN(C(=O)OC(C)(C)C)C3)c2)c1 (stereo not drawn) [Compound A-23]	–	–	–	–	> 100	> 100	≤ 1
CNCCCS(=O)(=O)NNC(=O)c1cc(-c2cccc(C)c2)cc(Cl)c1F [Compound A-27]	–	–	–	–	> 100	> 100	> 100
O=C(NNS(=O)(=O)c1cccc(O)c1)c1cc(-c2ccccc2)cc(Cl)c1F [Compound A-31]	–	–	–	–	≤ 1	≤ 1	≤ 1
Cc1cccc(-c2cc(Cl)c(F)c(C(=O)NNS(=O)(=O)C(C)C3CCCNC3)c2)c1 (stereo not drawn) [Compound A-25]	–	–	–	–	> 100	> 100	10 to 50
Cc1cccc(-c2cc(Cl)c(F)c(C(=O)NNS(=O)(=O)CC3CN(C(=O)OC(C)(C)C)CCN3C(=O)OC(C)(C)C)c2)c1 (stereo not drawn) [Compound A-14]	–	–	–	–	> 100	> 100	10 to 50
O=C(NNS(=O)(=O)c1cccc(O)c1)c1cc(-c2ccccc2)cc(F)c1F [Compound A-29]	–	–	–	–	≤ 1	≤ 10	≤ 1
Cc1cccc(-c2cc(Cl)c(F)c(C(=O)NNS(=O)(=O)CC3CCCCNC3)c2)c1 (stereo not drawn) [Compound A-21]	–	–	–	–	> 100	> 100	≤ 10
Cc1cccc(-c2cc(Cl)c(F)c(C(=O)NNS(=O)(=O)C3CCC(N)C3)c2)c1 (stereo not drawn) [Compound A-20]	–	–	–	–	> 100	> 100	10 to 50
Cc1cccc(-c2cc(Cl)c(F)c(C(=O)NNS(=O)(=O)C3CCC(NC(=O)OC(C)(C)C)C3)c2)c1 (stereo not drawn) [Compound A-19]	–	–	–	–	50 to 100	10 to 50	≤ 10
CNCCCS(=O)(=O)NNC(=O)c1cc(-c2cccc(C)c2)ccc1F [Compound A-26]	–	–	–	–	> 100	> 100	> 100
Cc1cccc(-c2cc(Cl)c(F)c(C(=O)NNS(=O)(=O)CC3CN(C(=O)OC(C)(C)C)C3)c2)c1 [Compound A-12]	–	–	–	–	10 to 50	10 to 50	≤ 10
Cc1cccc(-c2cc(Cl)c(F)c(C(=O)NNS(=O)(=O)CC3CNC3)c2)c1 [Compound A-13]	–	–	–	–	> 100	> 100	10 to 50
Cc1cc(-c2cccc(F)c2)cc(C(=O)NNS(=O)(=O)c2cccc(O)c2)c1F [Compound A-28]	–	–	–	–	≤ 1	≤ 1	≤ 1
COc1cccc(S(=O)(=O)NNC(=O)c2cc(-c3ccccc3)cc(Cl)c2F)c1 [Compound A-16]	–	–	–	–	≤ 1	≤ 10	≤ 1
Cc1cccc(-c2cc(Cl)c(F)c(C(=O)NNS(=O)(=O)CC3CCCCN(C(=O)OC(C)(C)C)C3)c2)c1 (stereo not drawn) [Compound A-22]	–	–	–	–	10 to 50	10 to 50	≤ 1
Cc1cccc(-c2cc(Cl)c(F)c(C(=O)NNS(=O)(=O)CC3CNCCN3)c2)c1 (stereo not drawn) [Compound A-15]	–	–	–	–	> 100	> 100	≤ 10
Cc1cccc(-c2cc(Cl)c(F)c(C(=O)NNS(=O)(=O)CC3CN(C)CCN3)c2)c1 (stereo not drawn) [Compound A-24]	–	–	–	–	10 to 50	50 to 100	≤ 10
Cc1cccc(-c2cc(Cl)c(F)c(C(=O)NNS(=O)(=O)CC3CNCCN3C)c2)c1 (stereo not drawn) [Compound A-32]	–	–	–	–	> 100	> 100	10 to 50

Continued, values first:

IC50 (KAT-6A) [µM]	IC50 (KAT-5) [µM]	IC50 (KAT-7) [µM]	IC50 (KAT-8) [µM]	IC50 (KAT-6A; Table 5) [µM]	IC50 (KAT-5; Table 5) [µM]	IC50 (KAT-7; Table 5) [µM]	Structure (SMILES)
< 10	< 10	< 10	–	–	–	–	CCc1cc(O)cc(S(=O)(=O)NNC(=O)c2cc(-c3ccccn3)cc(Cl)c2F)c1 [Compound I-483]
–	–	–	> 100	–	–	–	COc1ccc(COc2cccc(S(=O)(=O)NNC(=O)c3cc(-c4cn(C)cn4)cc(Cl)c3F)c2)cc1 [Compound I-397]
< 10	< 10	–	50 to 100	–	–	–	Cn1cnc(-c2cc(Cl)c(F)c(C(=O)NNS(=O)(=O)c3cccc(O)n3)c2)c1 [Compound I-391]
< 10	< 10	–	10 to 50	–	–	–	Cn1cnc(-c2cc(Cl)c(F)c(C(=O)NNS(=O)(=O)C[C@H]3CC[C@H](NC(=O)c4ccncc4)CC3)c2)c1 [Compound I-269]
< 10	< 10	–	10 to 50	–	–	–	Cn1cnc(-c2cc(Cl)c(F)c(C(=O)NNS(=O)(=O)CC3CCC(C)(C)CC3)c2)c1 [Compound I-396]
< 10	< 10	< 10	–	–	–	–	Cn1cnc(-c2cc(Cl)c(F)c(C(=O)NNS(=O)(=O)Cc3nn(C)cc3Cl)c2)c1 [Compound I-474]
< 10	< 10	–	10 to 50	–	–	–	Cn1cnc(-c2cc(Cl)c(F)c(C(=O)NNS(=O)(=O)CC34CC5CC(CC(C5)C3)C4)c2)c1 [Compound I-275]
10 to 50	10 to 50	–	10 to 50	–	–	–	CCNC(=O)N1C[C@H](CS(=O)(=O)NNC(=O)c2cc(-c3cn(C)cn3)cc(Cl)c2F)[C@@H](C)C1 [Compound I-271]
< 10	< 10	–	> 100	–	–	–	Cn1cnc(-c2cc(Cl)c(F)c(C(=O)NNS(=O)(=O)c3cccc(NCc4ccccc4)n3)c2)c1 [Compound I-393]
–	–	–	10 to 50	–	–	–	CNC(=O)N[C@H]1C[C@@H](CS(=O)(=O)NNC(=O)c2cc(-c3cn(C)cn3)cc(Cl)c2F)C1 [Compound I-197]
< 10	< 10	< 10	–	–	–	–	Cn1cnc(-c2cc(Cl)c(F)c(C(=O)NNS(=O)(=O)CC3CCC(OCCO)CC3)c2)c1 (stereo not drawn) [Compound I-467]
< 10	< 10	< 10	–	–	–	–	O=C(NNS(=O)(=O)c1cccc(O)c1)c1cc(-c2ccccn2)cc(Cl)c1F [Compound I-481]
10 to 50	< 10	< 10	–	–	–	–	CN(CC(F)(F)F)C1CCCC(CS(=O)(=O)NNC(=O)c2cc(-c3cn(C)cn3)cc(Cl)c2F)C1 (stereo not drawn) [Compound I-473]
< 10	< 10	< 10	–	–	–	–	Cn1cnc(-c2cc(Cl)c(F)c(C(=O)NNS(=O)(=O)C[C@H]3CC[C@H](N(C)CC(F)(F)F)CC3)c2)c1 [Compound I-471]
> 100	> 100	50 to 100	–	–	–	–	Cn1cnc(-c2cc(C(=O)NNS(=O)(=O)CC3CCCCC3)c(F)c(Cl)c2N(C(=O)OC(C)(C)C)C(=O)OC(C)(C)C)c1 [Compound I-475]
10 to 50	10 to 50	< 10	–	–	–	–	Cn1cnc(-c2cc(Cl)c(F)c(C(=O)NNS(=O)(=O)Cc3ccnn3C)c2)c1 [Compound I-480]
< 10	< 10	< 10	–	–	–	–	Cn1cnc(-c2cc(C(=O)NNS(=O)(=O)CC3CCCCC3)c(F)c(Cl)c2N)c1 [Compound I-476]
> 100	> 100	–	–	–	–	–	Cn1cnc(-c2cc(Cl)c(F)c(C(=O)NNS(=O)(=O)CC3CNCCN3)c2)c1 (stereo not drawn) [Compound I-472]
10 to 50	10 to 50	–	–	–	–	–	COc1ccc(S(=O)(=O)NNC(=O)c2cc(-c3cn(C)cn3)cc(Cl)c2F)c(F)c1OCc1ccccc1 [Compound I-462]
< 10	< 10	< 10	–	–	–	–	CCc1cccc(S(=O)(=O)NNC(=O)c2cc(-c3ccccn3)cc(Cl)c2F)c1 [Compound I-478]
< 10	< 10	< 10	–	–	–	–	Cn1cnc(-c2cc(Cl)c(F)c(C(=O)NNS(=O)(=O)Cc3ccn(C)n3)c2)c1 [Compound I-479]
